Measurements taken from the NIST ThermoML archive (doi:10.1016/j.jct.2015.11.008).
± gives the expanded uncertainty stated by the source.

How the values were obtained:
[1] = 298.15 K, 101.33 kPa, Liquid; for mass density: Vibrating tube method
[2] = xn = mol fraction of the nth substance listed; settings: 298.15 K, 101 kPa, Liquid; for mass density: Vibrating tube method
[3] = Concentric cylinders viscometry
[4] = Falling or rolling sphere viscometry
[5] = Concentric cylinders viscometry, x2 = 0.01995
[6] = Falling or rolling sphere viscometry, x2 = 0.01995

CCCC[n+]1ccc(C)cc1.O=S(=O)([N-]S(=O)(=O)C(F)(F)F)C(F)(F)F
viscosity [1, 3]: 55.7 ± 2.3 mPa·s
viscosity [1, 4]: 56.1 ± 2.4 mPa·s
mass density [1]: 1412.3 ± 2.1 kg/m3

CCCC[n+]1ccn(C)c1.O=S(=O)([N-]S(=O)(=O)C(F)(F)F)C(F)(F)F
viscosity [1, 3]: 50.9 ± 2.1 mPa·s
viscosity [1, 4]: 51.5 ± 2.1 mPa·s
mass density [1]: 1436.3 ± 2.1 kg/m3

CCCC[n+]1ccc(C)cc1.O=S(=O)([N-]S(=O)(=O)C(F)(F)F)C(F)(F)F + O
viscosity ([2]; Concentric cylinders viscometry, x2 = 0.00167): 55.7 ± 2.3 mPa·s
viscosity ([2]; Concentric cylinders viscometry, x2 = 0.00513): 55.3 ± 2.2 mPa·s
viscosity ([2]; Concentric cylinders viscometry, x2 = 0.01053): 54.8 ± 2.2 mPa·s
viscosity ([2]; Concentric cylinders viscometry, x2 = 0.01985): 53.9 ± 2.2 mPa·s
viscosity ([2]; Concentric cylinders viscometry, x2 = 0.04978): 50.4 ± 2 mPa·s
viscosity ([2]; Concentric cylinders viscometry, x2 = 0.1002): 45.6 ± 1.9 mPa·s
viscosity ([2]; Falling or rolling sphere viscometry, x2 = 0.00167): 56.1 ± 2.4 mPa·s
viscosity ([2]; Falling or rolling sphere viscometry, x2 = 0.00513): 56 ± 2.3 mPa·s
viscosity ([2]; Falling or rolling sphere viscometry, x2 = 0.01053): 55.1 ± 2.3 mPa·s
viscosity ([2]; Falling or rolling sphere viscometry, x2 = 0.01985): 54.2 ± 2.3 mPa·s
viscosity ([2]; Falling or rolling sphere viscometry, x2 = 0.04978): 51.3 ± 2.1 mPa·s
viscosity ([2]; Falling or rolling sphere viscometry, x2 = 0.1002): 46 ± 1.9 mPa·s
mass density ([2]; x2 = 0.00167): 1412.27 ± 2.1 kg/m3
mass density ([2]; x2 = 0.00513): 1412.02 ± 2.1 kg/m3
mass density ([2]; x2 = 0.01053): 1411.94 ± 2.1 kg/m3
mass density ([2]; x2 = 0.01985): 1411.55 ± 2.1 kg/m3
mass density ([2]; x2 = 0.04978): 1410.48 ± 2.1 kg/m3
mass density ([2]; x2 = 0.1002): 1408.83 ± 2.1 kg/m3

CCCC[n+]1ccn(C)c1.O=S(=O)([N-]S(=O)(=O)C(F)(F)F)C(F)(F)F + O
viscosity ([2]; Concentric cylinders viscometry, x2 = 0.00078): 50.9 ± 2.1 mPa·s
viscosity ([2]; Concentric cylinders viscometry, x2 = 0.00473): 50.6 ± 2.1 mPa·s
viscosity ([2]; Concentric cylinders viscometry, x2 = 0.0101): 49.9 ± 2 mPa·s
viscosity ([2]; Concentric cylinders viscometry, x2 = 0.01864): 49.3 ± 2 mPa·s
viscosity ([2]; Concentric cylinders viscometry, x2 = 0.05002): 45.9 ± 1.9 mPa·s
viscosity ([2]; Concentric cylinders viscometry, x2 = 0.1001): 41.7 ± 1.7 mPa·s
viscosity ([2]; Falling or rolling sphere viscometry, x2 = 0.00078): 51.5 ± 2.1 mPa·s
viscosity ([2]; Falling or rolling sphere viscometry, x2 = 0.00473): 50.8 ± 2.1 mPa·s
viscosity ([2]; Falling or rolling sphere viscometry, x2 = 0.0101): 50.5 ± 2.1 mPa·s
viscosity ([2]; Falling or rolling sphere viscometry, x2 = 0.01864): 49.4 ± 2.1 mPa·s
viscosity ([2]; Falling or rolling sphere viscometry, x2 = 0.05002): 46.8 ± 2 mPa·s
viscosity ([2]; Falling or rolling sphere viscometry, x2 = 0.1001): 42.3 ± 1.8 mPa·s
mass density ([2]; x2 = 0.00078): 1436.26 ± 2.1 kg/m3
mass density ([2]; x2 = 0.00473): 1436.04 ± 2.1 kg/m3
mass density ([2]; x2 = 0.0101): 1435.89 ± 2.1 kg/m3
mass density ([2]; x2 = 0.01864): 1435.57 ± 2.1 kg/m3
mass density ([2]; x2 = 0.05002): 1434.5 ± 2.1 kg/m3
mass density ([2]; x2 = 0.1001): 1432.47 ± 2.1 kg/m3

CCCCn1cc[n+](C)c1.F[B-](F)(F)F [1-butyl-3-methylimidazolium tetrafluoroborate]
viscosity [1, 3]: 108 ± 4.5 mPa·s
viscosity [1, 4]: 111.9 ± 5.6 mPa·s
mass density [1]: 1201.7 ± 2 kg/m3

CCCCn1cc[n+](C)c1.F[B-](F)(F)F [1-butyl-3-methylimidazolium tetrafluoroborate] + O
viscosity ([2]; Concentric cylinders viscometry, x2 = 0.00062): 108 ± 4.5 mPa·s
viscosity ([2]; Concentric cylinders viscometry, x2 = 0.005): 105.9 ± 4.4 mPa·s
viscosity ([2]; Concentric cylinders viscometry, x2 = 0.00993): 103.7 ± 4.3 mPa·s
viscosity [2, 5]: 99.5 ± 4.1 mPa·s
viscosity ([2]; Concentric cylinders viscometry, x2 = 0.04989): 87.9 ± 3.6 mPa·s
viscosity ([2]; Concentric cylinders viscometry, x2 = 0.09965): 71.4 ± 2.9 mPa·s
viscosity ([2]; Falling or rolling sphere viscometry, x2 = 0.00062): 111.9 ± 5.6 mPa·s
viscosity ([2]; Falling or rolling sphere viscometry, x2 = 0.005): 107.4 ± 5.3 mPa·s
viscosity ([2]; Falling or rolling sphere viscometry, x2 = 0.00993): 106.5 ± 5.2 mPa·s
viscosity [2, 6]: 99.9 ± 4.8 mPa·s
viscosity ([2]; Falling or rolling sphere viscometry, x2 = 0.04989): 89.6 ± 4.1 mPa·s
viscosity ([2]; Falling or rolling sphere viscometry, x2 = 0.09965): 72.5 ± 3.2 mPa·s
mass density ([2]; x2 = 0.00062): 1201.69 ± 2 kg/m3
mass density ([2]; x2 = 0.005): 1201.55 ± 2 kg/m3
mass density ([2]; x2 = 0.00993): 1201.36 ± 2 kg/m3
mass density ([2]; x2 = 0.01995): 1201.1 ± 2 kg/m3
mass density ([2]; x2 = 0.04989): 1200.18 ± 2 kg/m3
mass density ([2]; x2 = 0.09965): 1198.59 ± 2 kg/m3

CCCCn1cc[n+](C)c1.O=S(=O)([O-])C(F)(F)F [1-butyl-3-methylimidazolium trifluoromethanesulfonate]
viscosity [1, 3]: 90.7 ± 3.8 mPa·s
viscosity [1, 4]: 92.8 ± 4.3 mPa·s
mass density [1]: 1298.3 ± 2 kg/m3

CCCCn1cc[n+](C)c1.O=S(=O)([O-])C(F)(F)F [1-butyl-3-methylimidazolium trifluoromethanesulfonate] + O
viscosity ([2]; Concentric cylinders viscometry, x2 = 0.00022): 90.7 ± 3.8 mPa·s
viscosity ([2]; Concentric cylinders viscometry, x2 = 0.00612): 89.2 ± 3.7 mPa·s
viscosity ([2]; Concentric cylinders viscometry, x2 = 0.01): 88.2 ± 3.6 mPa·s
viscosity ([2]; Concentric cylinders viscometry, x2 = 0.01738): 86.2 ± 3.6 mPa·s
viscosity ([2]; Concentric cylinders viscometry, x2 = 0.04999): 79.7 ± 3.3 mPa·s
viscosity ([2]; Concentric cylinders viscometry, x2 = 0.1003): 70.4 ± 2.9 mPa·s
viscosity ([2]; Falling or rolling sphere viscometry, x2 = 0.00022): 92.7 ± 4.3 mPa·s
viscosity ([2]; Falling or rolling sphere viscometry, x2 = 0.00612): 91.3 ± 4.2 mPa·s
viscosity ([2]; Falling or rolling sphere viscometry, x2 = 0.01): 89.6 ± 4.1 mPa·s
viscosity ([2]; Falling or rolling sphere viscometry, x2 = 0.01738): 87.9 ± 4 mPa·s
viscosity ([2]; Falling or rolling sphere viscometry, x2 = 0.04999): 81.3 ± 3.7 mPa·s
viscosity ([2]; Falling or rolling sphere viscometry, x2 = 0.1003): 70.6 ± 3.1 mPa·s
mass density ([2]; x2 = 0.00022): 1298.32 ± 2 kg/m3
mass density ([2]; x2 = 0.00612): 1298.12 ± 2 kg/m3
mass density ([2]; x2 = 0.01): 1297.98 ± 2 kg/m3
mass density ([2]; x2 = 0.01738): 1297.72 ± 2 kg/m3
mass density ([2]; x2 = 0.04999): 1296.84 ± 2 kg/m3
mass density ([2]; x2 = 0.1003): 1295.4 ± 2 kg/m3

CCCC[N+](C)(C)C.O=S(=O)([N-]S(=O)(=O)C(F)(F)F)C(F)(F)F [butyltrimethylammonium bis(trifluoromethylsulfonyl)imide]
viscosity [1, 3]: 104.9 ± 4.4 mPa·s
viscosity [1, 4]: 104 ± 5 mPa·s
mass density [1]: 1392.9 ± 2.1 kg/m3

CCCC[N+](C)(C)C.O=S(=O)([N-]S(=O)(=O)C(F)(F)F)C(F)(F)F [butyltrimethylammonium bis(trifluoromethylsulfonyl)imide] + O
viscosity ([2]; Concentric cylinders viscometry, x2 = 6e-05): 104 ± 4.3 mPa·s
viscosity ([2]; Concentric cylinders viscometry, x2 = 0.00494): 103.5 ± 4.3 mPa·s
viscosity ([2]; Concentric cylinders viscometry, x2 = 0.01002): 101.4 ± 4.2 mPa·s
viscosity [2, 5]: 98.6 ± 4.1 mPa·s
viscosity ([2]; Concentric cylinders viscometry, x2 = 0.05012): 87.3 ± 3.6 mPa·s
viscosity ([2]; Concentric cylinders viscometry, x2 = 0.09979): 73 ± 3 mPa·s
viscosity ([2]; Falling or rolling sphere viscometry, x2 = 6e-05): 105 ± 5.1 mPa·s
viscosity ([2]; Falling or rolling sphere viscometry, x2 = 0.00494): 103.6 ± 5 mPa·s
viscosity ([2]; Falling or rolling sphere viscometry, x2 = 0.01002): 102.8 ± 5 mPa·s
viscosity [2, 6]: 99.6 ± 4.8 mPa·s
viscosity ([2]; Falling or rolling sphere viscometry, x2 = 0.05012): 88.2 ± 4.1 mPa·s
viscosity ([2]; Falling or rolling sphere viscometry, x2 = 0.09979): 73 ± 3.2 mPa·s
mass density ([2]; x2 = 6e-05): 1392.89 ± 2.1 kg/m3
mass density ([2]; x2 = 0.00494): 1392.7 ± 2.1 kg/m3
mass density ([2]; x2 = 0.01002): 1392.61 ± 2.1 kg/m3
mass density ([2]; x2 = 0.01995): 1392.23 ± 2.1 kg/m3
mass density ([2]; x2 = 0.05012): 1391.7 ± 2.1 kg/m3
mass density ([2]; x2 = 0.09979): 1390.15 ± 2 kg/m3
